Measurements: ChEMBL document CHEMBL6071128, “Chalcone-Monoterpene Derivatives from the Buds of Cleistocalyx operculatus and Their Potential as Protein Tyrosine Phosphatase 1B Inhibitors” (J Nat Prod, 2024)
pIC50, pKi: −log10 of the molar value.

How the values were obtained:
[1] = target: T1, Tyrosine-protein phosphatase non-receptor type 1 (Homo sapiens, UniProt P18031)
T1 sequence (P18031 whole entry): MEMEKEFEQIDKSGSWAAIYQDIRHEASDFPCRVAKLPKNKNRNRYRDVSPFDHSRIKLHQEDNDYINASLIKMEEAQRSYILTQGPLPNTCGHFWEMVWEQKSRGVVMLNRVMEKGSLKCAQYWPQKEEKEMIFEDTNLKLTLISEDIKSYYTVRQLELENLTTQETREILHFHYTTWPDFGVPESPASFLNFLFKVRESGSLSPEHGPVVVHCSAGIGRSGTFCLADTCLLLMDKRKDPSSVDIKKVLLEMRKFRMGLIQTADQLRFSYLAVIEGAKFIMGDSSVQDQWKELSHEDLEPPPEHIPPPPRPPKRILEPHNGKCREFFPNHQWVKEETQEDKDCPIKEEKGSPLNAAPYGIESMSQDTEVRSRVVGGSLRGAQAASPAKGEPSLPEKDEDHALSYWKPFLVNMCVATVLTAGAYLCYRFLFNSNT
Description: Binding affinity to human recombinant PTP1B (1 to 322 residues) extracted from Escherichia coli assessed as inhibition constant using p-nitrophenyl phosphate as substrate preincubated for 2 mins followed by substrate addition and measured after 15 mins by absorbance based analysis

[2] = target: T1, Tyrosine-protein phosphatase non-receptor type 1; remark: listed apart in the source
Description: Inhibition of human recombinant PTP1B (1 to 322 residues) extracted from Escherichia coli using p-nitrophenyl phosphate as substrate incubated for 30 mins by absorbance based analysis

pKi [1]	pIC50 [2]	SMILES
5.47	5.85	COc1c(C)c(O)c(C=O)c(O)c1C(=O)[C@@H]1CC(CCC=C(C)C)=CC[C@H]1c1ccccc1
5.23	5.96	COc1c(C)c(O)c(C=O)c(O)c1C(=O)[C@H]1CC(CCC=C(C)C)=CC[C@@H]1c1ccccc1
5.28	5.82	CC1=C2O[C@]34OC(c5ccccc5)CC(O)=C3C(=O)C(C)(C)C(=O)[C@]4(C)CC2=C(O)C(C(=O)/C=C/c2ccccc2)C1=O (some centres not stated)
–	5.41	COc1c(C)c(O)c(C=O)c(O)c1C(=O)/C=C/c1ccccc1
